Laboratory results as given in patent US20150064287A1, “METHOD FOR TREATING ABNORMAL POLYGLUTAMINE-MEDIATED DISEASES” (NATIONAL TAIWAN NORMAL UNIVERSITY, priority 2013, published 2015).

How the values were obtained:
293 ATXN3/Q75-GFP cells = experiment: ATXN3/Q75 aggregation assay in 293 cells (high-content analysis); format: cell-based, human; conditions: 8 hr pretreatment, doxycycline and oxaliplatin 6 days
Procedure: The isogenic ATXN3/[…]-75 cell line was employed, which was formed from subjecting the Flp-InTM-293 cells to targeting insertion of the pcDNA5/FRT/TO-ATXN3/[…] and […] recombinant plasmids. These cell lines were grown in medium containing 5 μg/mL blasticidin and 100 μg/mL hygromycin (InvivoGen). In addition, the method for culture in establishment of the human SH-SY5Y derived Flp-In host cell line and the formation of the isogenic ATXN3/[…]-75 cell line was the same. […] Then doxycycline (10 μg/mL, BD) and oxaliplatin (5 μM, Sigma) were added for 6 days.

[1] = MTT cytotoxicity assay in SH-SY5Y cells; format: cell-based; conditions: human, one day treatment
Procedure: (§1) Cells (5×10^4/well in 48-well dishes) were cultivated at 37° C. incubator containing 5% CO2 for 20 hr and treated with different concentrations of the Gardenia jasminoides extract (5-30 mg/mL) or pure compound (100 nM-1 mM). After one day, 20 μL MTT (3,[4,5-dimethylthiazol-2-yl]-2,5-diphenyl-tetrazolium bromide, 5 mg/mL in PBS; Sigma-Aldrich) was added to cells and incubated for 2 hr. The absorbance of the purple formazan dye was measured at 570 nm by a Bio-Tek μQuant Universal Microplate Spectrophotometer.

[2] = MTT cytotoxicity assay in HEK-293 cells; format: cell-based; conditions: human, one day treatment
Procedure: as §1

[3] = system: SH-SY5Y ATXN3/Q75-GFP cells; experiment: ATXN3/Q75 aggregation assay in retinoic acid-differentiated SH-SY5Y cells; format: cell-based, human; conditions: one week
Procedure: Flp-InTM-293 cells derived from human 293 (Invitrogen) were cultured as described above. The isogenic ATXN3/[…]-75 cell line was employed, which was formed from subjecting the Flp-InTM-293 cells to targeting insertion of the pcDNA5/FRT/TO-ATXN3/[…] and […] recombinant plasmids. These cell lines were grown in medium containing 5 μg/mL blasticidin and 100 μg/mL hygromycin (InvivoGen). In addition, the method for culture in establishment of the human SH-SY5Y derived Flp-In host cell line and the formation of the isogenic ATXN3/[…]-75 cell line was the same. […] After that, cells were stained with Hoechst 33342 (0.1 μg/mL) and aggregation percentage was assessed as described.

[4] = 1,1-diphenyl-2-picryl hydrazyl (DPPH) radical scavenging assay; format: biochemical; conditions: for DPPH scavenging activity: 10-200 μM tested, data not shown
Procedure: Then, the scavenging capacity was measured by monitoring the decrease in absorbance at 517 nm by a Thermo Scientific Multiskan GO Microplate Spectrophotometer.

In the case of `O=C(CCCCCCC(=O)Nc1ccccc1)NO` [SAHA, suberoylanilide hydroxamic acid, reference compound], the “ATXN3/Q75 aggregation as compared to untreated cells” value (293 ATXN3/Q75-GFP cells; at 100 nM) is reported as 85.9%.
In the case of `CC(/C=C/C=C(\C)C(=O)O[C@@H]1O[C@H](CO[C@@H]2O[C@H](CO)[C@@H](O)[C@H](O)[C@H]2O)[C@@H](O)[C@H](O)[C@H]1O)=C\C=C\C=C(C)\C=C\C=C(/C)C(=O)O[C@@H]1O[C@H](CO[C@@H]2O[C@H](CO)[C@@H](O)[C@H](O)[C@H]2O)[C@@H](O)[C@H](O)[C@H]1O` [crocin], the “ATXN3/Q75 aggregation as compared to untreated cells” value (293 ATXN3/Q75-GFP cells; at 100 nM) is reported as 81.5%, the IC50 at 1 day [1] is reported as 970 µM and the IC50 at 1 day [2] is reported as > 1000 µM. For the same compound, the “aggregation reduction in ATXN3/Q75 expressed neuronal cells” value (“aggregation reduction in ATXN3/Q75” below) ([3]; 100 nM) was 21%.
For `COC(=O)C1=CO[C@@H](O)[C@@H]2C(CO)=CC[C@H]12` [genipin], the IC50 at 1 day [1] was 100 µM, the IC50 at 1 day [2] was 580 µM and the DPPH scavenging activity [4] was “no detectable DPPH scavenging activity”. The “aggregation reduction in ATXN3/Q75” value ([3]; 500 nM) was 18%.
For `COC(=O)C1=CO[C@@H](O[C@@H]2O[C@H](CO)[C@@H](O)[C@H](O)[C@H]2O)[C@@H]2C(CO)=CC[C@H]12` [geniposide], the “ATXN3/Q75 aggregation as compared to untreated cells” value (293 ATXN3/Q75-GFP cells; at 500 nM) was 82.3%, the IC50 at 1 day [1] was > 1000 µM and the IC50 at 1 day [2] was > 1000 µM. For the same compound, the DPPH scavenging activity [4] was “no detectable DPPH scavenging activity” and the “aggregation reduction in ATXN3/Q75” value ([3]; 500 nM) was 21%.
In the case of `O=c1c(O)c(-c2ccc(O)cc2)oc2cc(O)cc(O)c12` [kaempferol, reference compound], the EC50 ([4]; 100 μM DPPH, 30 min room temperature) is reported as 27 µM.
